Laboratory results published in paper PMC10051705, “Leishmanicidal Activity of Guanidine Derivatives against Leishmania infantum” (Tropical Medicine and Infectious Disease, 2023).
Marks after values point to notes of the source that are not given here.

Key:
[1] = system: human red blood cells; test: red blood cell lysis assay; assay type: cell-based; conditions: 1 h, 37 °C
Procedure: The hemolytic activities of guanidine compounds were measured using human red blood cells from healthy adults (n = 3) according to methods previously described. Briefly, 80 µL of a 5% erythrocyte/phosphate-buffered saline (PBS) suspension was mixed with 20 µL of LQOFG-2, LQOFG-6, LQOFG-7, (1000 to 7.8 µM), and AmB (100 to 0.78 µM). After incubation at 37 °C for 1 h, 200 µL of PBS (1.5 mM KH2PO4, 8.1 mM Na2HPO4, 136.9 mM NaCl, and 2.6 mM KCl, pH 7.2) was added to stop the hemolysis process, and the samples were centrifuged for 10 min at 1000× g. The supernatants were collected, and the extent of hemolysis was measured spectrophotometrically at 540 nm. The hemolysis percentage was determined as [(Abssam − Abscon)/(Abstot − Abscon) × 100], where Abssam is the absorbance of the sample, Abscon is the absorbance of the blank control (without drugs), and Abstot is the absorbance of total hemolysis (replacing the sample solution with an equal volume of ultrapure water (Direct-Q UV®, Guyancourt, France)).

[2] = system: monocytes in PBMCs; test: nitrite assay (Griess reaction) in PBMC/monocytes infected or not with L. infantum; assay type: cell-based, human; conditions: for nitrite production: compound at 1× EC50, 24 h
Procedure: To perform the nitrite assay, PBMCs were obtained from five healthy volunteers (3 males, mean age 28.67 ± 2.96; and 2 females, mean age 28.50 ± 0.5) from João Pessoa, PB Brazil. Briefly, peripheral blood was diluted 1:1 with phosphate-buffered saline (PBS) and slowly layered over using Ficoll® Paque PLUS (GE Healthcare, Waukesha, WI, USA). Tubes were centrifuged at 400× g for 40 min at 20 °C. After centrifugation, PBMCs were harvested, washed three times with PBS, and resuspended in RPMI medium supplemented with antibiotics (penicillin 200 U/mL and streptomycin 0.1 mg/mL), 1 mM l-glutamine, and 10% inactivated human serum. Cell viability was assessed using a trypan blue dye exclusion assay. Cells were counted using a hemocytometer.
Promastigotes were prepared as previously described. Briefly, to confirm the infection, the L. infantum promastigotes were labeled with carboxyfluorescein diacetate succinimidyl ester (CFSE) (CellTrace ™ CFSE Cell Proliferation Kit; Eugene, OR, USA). The suspension was incubated for 15 min at 5% CO2, 37 °C, and washed three times with PBS containing 10% inactivated FBS producing CFSE-labeled L. infantum, which was added to PBMCs. The infection ratio was set at 1:10 (monocyte: L. infantum) for 3 h. After the infection, cells were washed three times with PBS supplemented with 10% FBS.
The plates were incubated for 24 h in a 5% CO2 incubator at 37 °C. The plates were centrifuged at 200× g for 8 min at 4 °C, and the supernatant was collected to measure reactive nitrogen production. CD14 surface antibody (PERCP-Cy5.5; clone MΦP9) was used for monocyte labeling (Figure S1). After adding the antibody, the plate was incubated at 4 °C for 15 min, protected from light. The cells were washed with ice-cold PBS buffer. The plate was centrifuged at 200× g again for 10 min at 4 °C. The supernatant was removed, the cells were resuspended in 100 µL of PBS buffer and 100 µL of 4% formaldehyde solution, then read on a flow cytometer (BD FACSCanto II, BD Biosciences, San Jose, CA, USA). FlowJo v.10.8.1 software was used to analyze the raw data. After obtaining PBMC, the cells were plated and incubated with LQOFG-7 and AmB at a concentration of 1× the EC50 value, with media or lipopolysaccharide (LPS) stimulus (lipopolysaccharide derived from Escherichia coli, Sigma-Aldrich O111:B4) at 100 ng/mL [26, 27, 28]. The culture supernatants from those infected and non-infected were evaluated for the stable end-product of reactive nitrogen species (NO, nitrates, and nitrites) using the Griess reaction, according to the Cayman Chemical instruction manual (Cayman Chemical, Ann Arbor, MI, USA). The nitrite level was determined by measuring the absorbance at a wavelength of 540 nm using a microplate reader (BioTek-ELx800).

[3] = system: L. infantum axenic amastigotes; test: apoptosis/necrosis profiling, annexin V/PI staining, axenic amastigotes; assay type: cell-based, Leishmania infantum
Procedure: (§1) To evaluate both apoptosis and necrosis, promastigote forms of L. infantum in the log phase of growth were incubated at several concentrations based on the IC50 values of LQOFG-2 (6.35; 12.7, 25.4, and 50.8 µM) LQOFG-6 (12.2, 24.4, 48.8 and 97.6 µM), and LQOFG-7 (11.65, 23.3, 46.6 and 93.2 µM), and AmB (1.5 and 6 µM) was used as the positive control. The plates were incubated for 24 h at 26 °C ± 1 °C in a B.O.D. incubator. After incubation, the promastigotes were washed three times in cold PBS, resuspended in binding buffer (10-mM HEPES, 140-mM NaCl, and 2.5-mM CaCl2, pH 7.4), and stained using a FITC Annexin V/Dead Cell Apoptosis Kit (BD Biosciences, San Jose, CA, USA) according to the manufacturer’s instructions. The stained cells were diluted and suspended in an Annexin V binding buffer (BD Biosciences, San Jose, CA, USA). Annexin V-FITC/propidium iodide (PI)-stained cells were analyzed using a BD FACSCanto II flow cytometer (BD Biosciences, San Jose, CA, USA). The raw data were analyzed using FlowJo 10.0.7 software (TreeStar Inc., Ashland, OR, USA).
To evaluate both apoptosis and necrosis of the amastigote-like forms of L. infantum, the protocol was followed. In each well, amastigotes were treated with the guanidine compounds and controls.

[4] = system: L. infantum axenic amastigotes; test: axenic amastigote inhibition assay (MTT); assay type: cell-based; conditions: Leishmania infantum, 24 h; for EC50: 37 °C, pH 5.5, MTT
[5] = system: L. infantum promastigotes; test: apoptosis/necrosis profiling, annexin V/PI staining, promastigotes; assay type: cell-based, Leishmania infantum
Procedure: as §1

| EC50 [4] | Compound | HC50, toxicity to red blood cells [1] | % cells, Early Apoptosis (AV+, PI−) ([3]; 1 × EC50, 24 h) | % cells, Late Apoptosis (AV+, PI+) ([3]; 1 × EC50, 24 h) | % cells, Necrosis (AV−, PI+) ([3]; 1 × EC50, 24 h) | % cells, Early Apoptosis (AV+, PI−) ([3]; 4 × EC50, 24 h) | % cells, Late Apoptosis (AV+, PI+) ([3]; 4 × EC50, 24 h) | % cells, Necrosis (AV−, PI+) ([3]; 4 × EC50, 24 h) | % cells, Early Apoptosis (AV+, PI−) ([5]; 1× IC50, 24 h) | % cells, Late Apoptosis (AV+, PI+) ([5]; 1× IC50, 24 h) | % cells, Necrosis (AV−, PI+) ([5]; 1× IC50, 24 h) | % cells, Early Apoptosis (AV+, PI−) ([5]; 4× IC50, 24 h) | % cells, Late Apoptosis (AV+, PI+) ([5]; 4× IC50, 24 h) | further results |
| --- | --- | --- | --- | --- | --- | --- | --- | --- | --- | --- | --- | --- | --- | --- |
| 0.3 µM | C[C@@H]1[C@H](O)[C@@H](C)/C=C/C=C/C=C/C=C/C=C/C=C/C=C/[C@H](O[C@@H]2O[C@H](C)[C@@H](O)[C@H](N)[C@@H]2O)C[C@@H]2O[C@](O)(C[C@@H](O)C[C@@H](O)[C@H](O)CC[C@@H](O)C[C@@H](O)CC(=O)O[C@H]1C)C[C@H](O)[C@H]2C(=O)O [Amphotericin B, reference compound] | 7.10 ± 2.09 µM | 4.73 ± 0.97% | 57.50 ± 1.72 ^d % | 11.52 ± 1.89% | 0.60 ± 0.42% | 97.87 ± 1.01 ^d % | 0.96 ± 0.33 ^d % | 0.67 ± 0.27% | 4.30 ± 0.28% | 7.64 ± 1.17% | 0.27 ± 0.09% | 65.83 ± 1.85% | nitrite production ([2]; monocytes infected with L. infantum, LPS-activated (100 ng/mL)): 13.6 ± 4.25 µM; increase in nitrite production (in words) ([2]; monocytes infected with L. infantum, treatment at EC50): no significant increase; % cells, Late Apoptosis (AV+, PI+) ([3]; 1 × EC50, 24 h, listed as AmB): 57.50 ± 1.72%; % cells, Late Apoptosis (AV+, PI+) ([3]; 4 × EC50, 24 h, listed as AmB): 97.87 ± 1.01%; % cells, Necrosis (AV−, PI+) ([5]; 4× IC50, 24 h): 33.10 ± 1.90% |
| 18.6 ± 1.23 µM | O=C(/N=C(/NCc1ccccc1)Nc1ccc(I)cc1)c1ccccc1 [LQOFG-7, (Z)-N-((benzylamine)((4-iodophenyl)amino)methylene)benzamide] | >1000 µM | 5.84 ± 0.57 ^b % | 44.20 ± 1.01 ^d % | 13.53 ± 0.32% | 8.01 ± 0.14 ^d % | 63.27 ± 0.59 ^d % | 12.27 ± 0.48% | 0.77 ± 0.04% | 0.41 ± 0.08% | 1.19 ± 0.12% | 0.39 ± 0.08% | 0.18 ± 0.07% | nitrite production ([2]; monocytes infected with L. infantum, not LPS-activated, untreated infected 0.367 ± 1.48 µM): 13.5 ± 1.30 µM; nitrite production ([2]; uninfected human monocytes (PBMC), untreated control 3.81 ± 1.36 µM): 10.5 ± 3.58 µM; % cells, Early Apoptosis (AV+, PI−) ([3]; 0.5 × EC50, 24 h): 5.56 ± 0.46 ^a %; % cells, Late Apoptosis (AV+, PI+) ([3]; 0.5 × EC50, 24 h): 35.53 ± 3.13 ^c %; % cells, Necrosis (AV−, PI+) ([3]; 0.5 × EC50, 24 h): 9.83 ± 1.27%; % cells, Early Apoptosis (AV+, PI−) ([3]; 2 × EC50, 24 h): 10.02 ± 1.53 ^d %; % cells, Late Apoptosis (AV+, PI+) ([3]; 2 × EC50, 24 h): 36.70 ± 10.35 ^d %; % cells, Necrosis (AV−, PI+) ([3]; 2 × EC50, 24 h): 5.63 ± 1.24%; inhibition at 31.2 µM ([4]; at 31.2 µM, read-out: inhibition of axenic amastigotes compared to the control (untreated)): 58%; % cells, Early Apoptosis (AV+, PI−) ([5]; 0.5× IC50, 24 h): 0.28 ± 0.05%; % cells, Late Apoptosis (AV+, PI+) ([5]; 0.5× IC50, 24 h): 0.47 ± 0.07%; % cells, Necrosis (AV−, PI+) ([5]; 0.5× IC50, 24 h): 0.87 ± 0.17%; % cells, Early Apoptosis (AV+, PI−) ([5]; 2× IC50, 24 h): 0.76 ± 0.10%; % cells, Late Apoptosis (AV+, PI+) ([5]; 2× IC50, 24 h): 0.26 ± 0.09% |
